Reference: patent US20100105707A1, “METHOD OF TREATING OR PREVENTING OXIDATIVE STRESS-RELATED DISEASE” (The United States of America, priority 2006, published 2010)
Values after ≈ are worked out from the molar mass of the structure shown.

Assays:
[1] = Pharmacokinetics: plasma and brain levels after intravenous administration; type: in vivo, C57BL/6 mice; settings: mice
Method: Mice are administered intravenously 10 mg/kg ([…]) of uric acid as a reference compound and equimolar doses of its analogs (sUA4-2,6,8 trithio uric acid, 12.9 mg/kg; mUA2-1,7 dimethyl uric acid, 11.7 mg/kg; sUA2-6,8 dithio uric acid, 11.9 mg/kg). Three month-old male C57BL/6 mice are injected with a compound and are euthanized 15, 30, 60 or 120 min later (1 mouse/time point/compound). Blood and brain tissues are rapidly removed, frozen on dry ice and kept at −80° C. before quantification of uric acid analogs. Plasma and cerebral cortical tissues are extracted in 10 volumes of 0.5 M perchloric acid and 1 mM ethylenediamine tetraacetic acid (EDTA). Levels of uric acid analogs in the extracts are quantified by HPLC methods employing a 25 cm RP C18 column, 25 mM KH2PO4 buffer (pH=4.6) with 1 ml/min flow rate and UV diode array detection.
Mice that are administered mUA2, sUA2 or sUA4 intravenously are euthanized at increasing time points (15, 30, 60 and 120 min) and levels of the compounds in plasma and brain tissue are measured.

[2] = tested on: mouse model of focal ischemic stroke; assay: Focal cerebral ischemia-reperfusion (middle cerebral artery occlusion) model; type: in vivo, C57BL/6 mice; settings: administered 1 h after ischemia onset
Method: (§1) FIG. 4 illustrates that a compound of formula (I) improves functional outcome (e.g., ambulation) and reduces brain damage in a mouse model of focal ischemic stroke in an embodiment of the invention. In FIG. 4A neurological function is scored at 24, 48 and 72 hours post-stroke. In FIG. 4B infarct volume is quantified at 72 hours post-stroke. Values are the mean and SEM (n=8-12 mice). *p<0.001 compared to sham. +p<0.01 compared to vehicle.
as §1, with “FIG. 5” for “FIG. 4”, “that compounds” for “that a compound”, “(I) improve” for “(I) improves”, “outcome” for “outcome (e.g., ambulation)”, “FIG. 5A,” for “FIG. 4A”, “FIG. 5B,” for “FIG. 4B”
Three month-old male C57BL/6 mice are maintained on a 12 h light/12 h dark cycle with continuous access to food and water. The method for subjecting the mice to middle cerebral artery occlusion-reperfusion has been described previously (Arumugam et al., Am. J. Physiol. Heart Circ. Physiol., 287, H2555-2560 (2004)). Mice are anesthetized with isofluorane, a midline incision is made in the neck, and the left external carotid and pterygopalatine arteries are isolated and ligated with 5-0 silk thread. The internal carotid artery (ICA) is occluded at the peripheral site of the bifurcation of the internal carotid artery and the pterygopalatine artery with a small clip and the common carotid artery is ligated with 5-0 silk thread. The external carotid artery is cut, and a 6-0 nylon monofilament with a tip that is blunted (0.2-0.22 mm) with a coagulator is inserted into the external carotid artery. After the clip at the ICA is removed, the nylon thread is advanced into the middle cerebral artery until light resistance is felt. The nylon thread and the common carotid artery ligature are removed after 1 h of occlusion to initiate reperfusion. In the sham group, these arteries are visualized but not disturbed. Mice are administered either uric acid analogs of formula (I) or vehicle (dimethylsulfoxide) by infusion into the femoral vein (10 μl infused over a 2 min period) either 30 min prior to or 60 min after the onset of middle cerebral artery (MCA) occlusion. In a separate set of experiments anesthetized animals from all groups (4-6 mice per group) undergo cerebral blood flow (CBF) measurements using a laser Doppler perfusion monitor. All blood flow measurements are conducted with the mouse fixed in a plastic frame with the probe placed in the region of cerebral cortex perfused by the middle cerebral artery. These procedures are approved by the National Institute on Aging Animal Care and Use Committee.
The functional consequences of focal cerebral ischemia-reperfusion injury are evaluated by using a five-point neurological deficit score (0, no deficit; 1, failure to extend right paw; 2, circling to the right; 3, falling to the right; and 4, unable to walk spontaneously) and are assessed in a blinded fashion. At 72 h of reperfusion, the mice are killed with a lethal dose of isofluorane. The brains are immediately removed and placed into PBS (4° C.) for 15 min, and 2-mm coronal sections are cut with a tissue cutter. The brain sections are stained with 2% 2,3,5-triphenyltetrazolium chloride in phosphate buffer at 37° C. for 15 min. The stained sections are photographed, and the digitized images are used for analysis. The borders of the infarct in each brain slice are outlined and the area quantified using a NIH image 6.1 software. To correct for brain swelling, the infarct area is determined by subtracting the area of undamaged tissue in the left hemisphere from that of the intact contralateral hemisphere. Infarct volume is calculated by integration of infarct areas for all slices of each brain.

skin wound = assay: Punch biopsy wound healing model; type: in vivo, C57BL/6 mice; settings: single topical dose at time of wounding; on average; saline control greater than 13 days
Description: A defined wound is created with a 4 mm Accuderm human punch biopsy kit (Accuderm, Ft Lauderdale, Fla.) in C57BL/6 mice. Specifically, the loose skin on the back of a mouse was brought together and, under anesthetic, a single punch was made through either side to create two wounds through the skin alone—without affecting underlying tissue. Immediately post-wounding, the wounds are either treated topically with normal saline (to serve as the non-treated control group) or with a compound of formula (I). Each day the wounds are digitally photographed and wound areas are determined by computer integration of the photographs. Wound area at the time of wounding (day 0) is arbitrarily set to a relative value of 1 for all wounds; such that subsequent wound areas are converted to relative wound areas by dividing the wound area at day n by the wound area at day zero.

[3] = tested on: cultured hippocampal neurons; assay: Oxygen and glucose deprivation (OGD) of cultured hippocampal neurons; type: cell-based, rat; settings: compared to neurons in control cultures; FIG. 2
Method: FIG. 2 illustrates that compounds of formula (I) protect cultured hippocampal neurons against ischemia-like conditions in an embodiment of the invention. Neuronal survival is quantified and values are the mean and SEM (n=8-10 cultures). *p<0.05 compared to the vehicle/OGD cultures. Synaptosomes are prepared from the cerebral cortex of 2-3 month-old adult male Sprague-Dawley rats and are cryopreserved using methods described previously (Begley et al., Brain Res. Protoc., 3, 76-82 (1998)). After thawing, cryopreserved synaptosomes are washed twice with Locke's buffer and plated in 24-well plates at a protein concentration of 250 μg per well. After a 30 min period to permit attachment of the synaptosomes to the substrate, synaptomoses are incubated for 1 h with compounds of formula (I) (1-10 μM), and then exposed for 4 h to freshly prepared 50 μM Fe^2+ (FeSO4). After an additional 30 min incubation in the presence of 10 μM dihydrorhodamine 123 (DHR), a probe for ROS which fluoresces when oxidized (Keller et al., J. Neurochem., 69, 273-284 (1997)), the synaptosomes are washed twice with Locke's buffer and levels of fluorescence are quantified using a fluorescence plate reader (488 nm excitation and 510 emission wavelengths). Fluorescence values for wells exposed to experimental treatments are expressed as a percentage of the mean value for untreated control wells. […] Methods for preparation and maintenance of cultures of PC12 cells and primary embryonic rat hippocampal neurons have been described previously (Furukawa et al., J. Neurosci., 17, 8178-8186 (1997) and Chan et al., J. Biol. Chem., 279, 28733-28743 (2004)). Cells are plated into polyethylenimine-coated plastic 96-well culture plates containing Neurobasal medium with B27 supplements. Experiments are performed in 7-8 day-old cultures (hippocampal neurons) or Dulbecco's modified eagle's medium (DMEM) with 10% fetal bovine serum (PC12 cells). […] Cell viability is quantified by counting viable neurons in premarked microscope fields prior to and following experimental treatment and then calculating percent survival.

[4] = Water solubility in cold water; type: physicochemical
Method: Commercially available derivatives are obtained from Sigma-Aldrich (St. Louis, Mo.). The methods used for the synthesis of methyl- and sulfur-derivatives of uric acid are similar to those described previously (Beaman et al., J. Org. Chem., 27, 986-990 (1962) and Maruyama et al., Nucleosides, Nucleotides, Nucleic Acids, 19, 1193-1203 (2000)) and structures are confirmed by ^13C nuclear magnetic resonance (NMR) and ultra-violet (UV) spectral analyses. Uric acid analogs are assayed by high performance liquid chromatography (HPLC) and found to be of >97% purity.

Kp ([1]; male, C57BL/6, mouse, brain (cerebral cortical tissue) / plasma, early time points (15-30 min), read-out: brain tissue concentration as percentage of plasma concentration): ~0.1
solubility [4]: 2000 µg/mL (≈ 9.99 mM)
SMILES: O=c1[nH]c(=S)c2[nH]c(=S)[nH]c2[nH]1 [sUA2, 6,8 dithio uric acid]
detection in the brain ([1]; equimolar to 10 mg/kg uric acid, 15, 30, 60 and 120 min): detected in the brain at all time points examined
brain concentration time course versus plasma ([1]; through the 120 min time point): remain elevated while plasma concentrations decrease progressively
functional outcome (neurological deficit score) ([2]; FIG. 5A): significantly improve functional outcome
brain damage ([2]; FIG. 5B): decrease brain damage
time to wound closure post wounding (skin wound): 8 days
resistance to OGD induced death [3]: significantly more resistant
